Test results reported in patent US20210244813A1, “ADJUVANT AND VACCINE COMPOSITIONS” (priority 2012, published 2021).

System: IL-4
Assay: Relative IL-4 mRNA expression (real time RT-PCR) in cultured splenic lymphocytes of vaccinated mice
Assay type: cell-based
Conditions: vaccine treatment group; culture with LAP, LAP/QAC or OVA

OVA
IL-4 expression normalized to ARBP at 48 hours in culture: Increased IL-4 expression was observed for some animals
